Laboratory results published in patent publication US8835495B2, “Pharmaceutical composition comprising cyclobenzaprine and aceclofenac in association” (Incrementha P, D & I Pesquisa, Desenvolvimento e Inovacao …, priority 2006, dated 2014).
Structures can show the parent of a compound that is named as a salt.

Test: Comparative stability study of cyclobenzaprine hydrochloride and aceclofenac together and isolated (opened glass flasks, oven)
Format: physicochemical
Conditions: oven at 50° C. and 90% relative moisture, after 30 days

## O=C(O)COC(=O)Cc1ccccc1Nc1c(Cl)cccc1Cl [aceclofenac, 2-[2-[2-[(2,6-dichlorophenyl)amino]phenyl]acetyl]oxyacetic acid]
  content of active ingredient(s) by chromatographic analysis: remained unaltered

## CN(C)CCC=C1c2ccccc2C=Cc2ccccc21 [cyclobenzaprine hydrochloride, 3-(5H-dibenzo[a,d]cyclohepten-5-ylidene)-N,N-dimethyl-1-propanamine]
  content of active ingredient(s) by chromatographic analysis: remained unaltered
